The text below walks through data of patent publication US4738954A, “Novel N^6 -substituted-5'-oxidized adenosine analogs” (Warner-Lambert Company, priority 1985, dated 1988).

SMILES strings stand for the structures.

Test [1] has as its system platelets (collagen-induced aggregation). Kind of test: Antithrombocyte aggregation test in vitro (ATA-8), collagen-induced, platelet rich plasma. Type of test: cell-based, human (Community Research Clinic volunteers). The following applies: Homo sapiens. Here is the method: (§1) ANTITHROMBOCYTE AGGREGATION TEST-IN VITRO (ATA-8)
Source and Preparation of Platelet Suspensions
Blood is collected from Community Research Clinic volunteers who have not ingested aspirin or other non-steroidol antiinflammatory drugs within the preceeding two weeks and have not eaten within the nine hours before blood draw. Blood is taken in 4.5 ml portions in Vacutainer No. 6462S silicone-coated tubes or equivalent containing 0.5 ml of 3.8% trisodium citrate. Usually six or eight portions of 4.5 ml are drawn from each volunteer. The blood collected from three or four volunteers is pooled prior to centrifugation. […] The platelet count of the PRP is determined with a Coulter Thromobocounter. […]
Platelet-rich plasma adjusted to 250,000 platelets per microliter is distributed in 0.36 ml aliquots into silicone-coated cuvettes of 0.312 inch diameter. […] Extent of aggregation, using ADP stimulus, or rate of aggregation, using collagen stimulus, is determined using the Payton Scientific Dual Channel Aggregation Module, Model 300B. Appropriate concentrations of ADP or collagen are determined by an initial brief titration. […]
The major slope (that is, the slope of the first straight line portion) of the collagen-induced aggregation curve for each drug concentration is determined and compared to the slope of the curve for control aggregations. […]

For test [2] the test system is unchanged. Description: Antithrombocyte aggregation test in vitro (ATA-8), collagen-induced, whole blood. Format: cell-based, human (Community Research Clinic volunteers). The following applies: Homo sapiens, Platelet. Here is the method: as §1
Blood is collected from Community Research Clinic volunteers who have not ingested aspirin or other non-steroidol antiinflammatory drugs within the preceeding two weeks and have not eaten within the nine hours before blood draw. Blood is taken in 4.5 ml portions in Vacutainer No. 6462S silicone-coated tubes or equivalent containing 0.5 ml of 3.8% trisodium citrate. Usually six or eight portions of 4.5 ml are drawn from each volunteer. The blood collected from three or four volunteers is pooled prior to centrifugation. […]
Addition of drug solution or saline (0.02 ml) is followed in 5 min by addition of aggregating agent (ADP or collagen suspension, 0.02 ml). Extent of aggregation, using ADP stimulus, or rate of aggregation, using collagen stimulus, is determined using the Payton Scientific Dual Channel Aggregation Module, Model 300B. Appropriate concentrations of ADP or collagen are determined by an initial brief titration.
The major slope (that is, the slope of the first straight line portion) of the collagen-induced aggregation curve for each drug concentration is determined and compared to the slope of the curve for control aggregations. Values for drug test aggregations are expressed as "precent of control" and are plotted versus drug concentration on semilog paper. […]

As a reminder, the IC50 is the concentration needed to halve the response being measured. As to `CCNC(=O)[C@H]1O[C@@H](n2cnc3c(N[C@H](C)Cc4ccccc4)ncnc32)[C@H](O)[C@@H]1O` [Example 1, (R)-N-6-[(2-phenyl-1-methyl)ethyl]-adenosine-5'-ethylcarboxamide], the IC50 in test [1] was determined as 0.2 µM; in test [2] it was 0.05 µM.
